Measurements from US9034866B2 (Genentech, Inc., priority 2012, dated 2015).
“And” between values parts separate entries of the source, which are not always exact repeats. Equal entries are not always repeated. Where two headings read alike, the source gives them in different places.

Molecular target: nuclear factor-kappa B (NF-kB)-inducing kinase (NIK) (Homo sapiens (Human), UniProt Q99558)
Assay: NIK Enzyme Inhibition Assay (Transcreener ADP fluorescence polarization)
Assay type: biochemical
Details: read-out: NIK ADP-FP (Ki uM)
Method in brief: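 Baculovirus/insect-cell-expressed NIK (0.2-1 nM) incubated with compounds 1-3.5 h at 10 uM ATP. Buffer: 50 mM HEPES pH 7.2, 10 mM MgCl2, 2 mM DTT, 1% DMSO. ADP detected by Transcreener fluorescence polarization (ADP antibody, AlexaFluor 633 tracer) after EDTA quench.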

[1] = purified NIK 0.2-1 nM, 10 uM ATP, Morrison's quadratic equation

Sequence of nuclear factor-kappa B (NF-kB)-inducing kinase (NIK) (Q99558 whole entry): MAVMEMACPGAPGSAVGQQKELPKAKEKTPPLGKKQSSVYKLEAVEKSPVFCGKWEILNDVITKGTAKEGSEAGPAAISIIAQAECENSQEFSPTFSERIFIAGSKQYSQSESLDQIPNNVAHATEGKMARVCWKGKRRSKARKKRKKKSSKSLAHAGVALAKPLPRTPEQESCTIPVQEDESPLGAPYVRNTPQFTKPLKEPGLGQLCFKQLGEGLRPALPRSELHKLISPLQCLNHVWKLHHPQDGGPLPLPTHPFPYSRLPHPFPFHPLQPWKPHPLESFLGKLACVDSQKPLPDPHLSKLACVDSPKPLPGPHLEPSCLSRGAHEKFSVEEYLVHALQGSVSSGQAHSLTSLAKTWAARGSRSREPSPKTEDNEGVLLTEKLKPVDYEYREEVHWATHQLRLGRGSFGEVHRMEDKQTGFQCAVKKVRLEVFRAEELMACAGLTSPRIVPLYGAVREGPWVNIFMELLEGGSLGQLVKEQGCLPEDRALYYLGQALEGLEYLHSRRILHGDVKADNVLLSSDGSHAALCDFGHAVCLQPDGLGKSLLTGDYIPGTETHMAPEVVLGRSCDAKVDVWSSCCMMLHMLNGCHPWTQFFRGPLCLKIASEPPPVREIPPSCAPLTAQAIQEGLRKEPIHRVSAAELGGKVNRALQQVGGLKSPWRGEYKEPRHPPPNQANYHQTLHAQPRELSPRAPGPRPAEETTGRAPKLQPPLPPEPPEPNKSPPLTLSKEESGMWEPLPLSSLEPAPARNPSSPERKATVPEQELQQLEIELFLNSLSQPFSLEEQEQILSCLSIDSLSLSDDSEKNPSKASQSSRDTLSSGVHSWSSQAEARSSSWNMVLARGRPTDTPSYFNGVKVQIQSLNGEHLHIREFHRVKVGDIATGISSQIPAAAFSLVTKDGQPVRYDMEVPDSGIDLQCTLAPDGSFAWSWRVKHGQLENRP

`CC(O)C(C)(O)C#Cc1cc2c(cc1F)OCCn1cc(C(N)=O)nc1-2` (centres unmarked) [Example 142] was tested, and the Ki [1] was 0.142 µM.
`CN1CCCC(O)(C#Cc2ccc3c(c2)-c2nc(C(N)=O)cn2CCO3)C1=O` (centres unmarked) [Example 158] showed a Ki [1] of 0.0059 µM.
`Cc1nn(C)cc1C(O)c1c(C(N)=O)nc2n1CCOc1cc(F)c(C#CC(C)(C)O)cc1-2` (centres unmarked) [Example 169] was tested, and the Ki [1] was 0.023 µM.
In the case of `CC(C)(C#Cc1ccc2c(c1)-c1nc(C(N)=O)cn1CCO2)CO` [Example 171], the Ki [1] was > 5 µM.
Compound `CC(C)(O)C#Cc1ccc2c(c1)-c1nc(C(N)=O)cn1C1CC2C1` [Example 179, 10-(3-hydroxy-3-methyl-but-1-ynyl)-5,6,7,12-tetrahydro-5,7-methanobenzo[c]imi-dazo[1,2-a]azepine-2-carboxamide] has a Ki [1] of 0.022 µM.
For `CC(O)(C#Cc1ccc2c(c1)-c1nc(C(N)=O)cn1C1CC2C1)CO` (centres unmarked) [Example 181, 10-(3,4-dihydroxy-3-methyl-but-1-ynyl)-5,6,7,12-tetrahydro-5,7-methanoben-zo[c]imidazo[1,2-a]azepine-2-carboxamide], the Ki [1] was 0.036 µM.
With `CC(O)(C#Cc1cc2c(cc1F)OCCc1sc(C(N)=O)nc1-2)c1ncn[nH]1` (centres unmarked) [Example 182, 8-fluoro-9-[3-hydroxy-3-(1H-1,2,4-tria-zol-5-yl)but-1-ynyl]-4,5-dihydro-[I]ben-zoxepino[5,4-d]thiazole-2-carboxamide] the Ki [1] was 0.0021 µM.
With `COCC(C)(O)C#Cc1cc2c(cc1F)OCCn1c-2nc(C(N)=O)c1-c1nc(C2CC2)n[nH]1` (centres unmarked) [Example 213] the Ki [1] was 0.009 µM.
Work on `CC(C)N(C)Cc1c(C(N)=O)nc2n1C1CC(C1)c1cc(F)c(C#CC(C)(C)O)cc1-2` [Example 223] yielded a Ki [1] of 0.16 µM.
`CC(O)(C#Cc1cc2c(cc1F)OCCn1cc(C(N)=O)nc1-2)c1ncccc1F` (centres unmarked) [Example 252] was tested, and the Ki [1] was 0.025 µM.
Compound `CC(C)(O)C#Cc1cc2c(cc1F)C1CC(C1)n1c-2nc(C(N)=O)c1C(O)c1ccn[nH]1` (centres unmarked) [Example 309, 9-fluoro-10-(3-hydroxy-3-methyl-but-1-ynyl)-3-[hydroxy(1H-pyrazol-5-yl)meth-yl]-5,6,7,12-tetrahydro-5,7-methanoben-zo[c]imidazo[1,2-a]azepine-2-carboxamide] has a Ki [1] of 0.022 µM.
With `CN1CC[C@](O)(C#Cc2cc3c(cc2F)C2CC(C2)n2c-3nc(C(N)=O)c2C(C)(C)O)C1=O` [Example 325, 9-fluoro-3-(1-hydroxy-1-methyl-ethyl)-10-[2-[(3S)-3-hydroxy-1-methyl-2-oxo-pyrrolidin-3-yl]ethynyl]-5,6,7,12-tetra-hydro-5,7-methanobenzo[c]imidazo-[1,2-a]azepine-2-carboxamide] the Ki [1] was > 1.2 µM.
For `CC(C)(O)C#Cc1cc2c(cc1F)C1CC(C1)n1c-2nc(C(N)=O)c1CNC(=O)C(C)(C)C` [Example 365, 3-[(2,2-dimethylpropanoylamino)meth-yl]-9-fluoro-10-(3-hydroxy-3-methyl-but-1-ynyl)-5,6,7,12-tetrahydro-5,7-meth-anobenzo[c]imidazo[1,2-a]azepine-2-carb-oxamide], the Ki [1] was 0.017 µM.
For `CC12CCC(O)(C#Cc3ccc4c(c3)-c3nc(C(N)=O)cn3CCO4)C1O2` (centres unmarked) [Example 428], the Ki [1] was > 1.2 µM.
For `Cc1nnc([C@](C)(O)C#Cc2ccc3c(c2)-n2nc(C(N)=O)cc2C(C)CO3)o1` (some centres unmarked) [Example 497], the Ki [1] was 0.039 µM.
`CNC(=O)c1c(C(N)=O)nn2c1CCOc1ccc(C#C[C@@](C)(O)c3cc(C)on3)cc1-2` [Example 548] gave a Ki of 0.0014 µM.
`Cc1cc([C@](C)(O)C#Cc2ccc3c(c2)-c2nc(C(N)=O)c(C(=O)NCC4COC4)n2CCO3)no1` [Example 580, (R)-10-(3-hydroxy-3-(5-methylisoxazol-3-yl)but-1-yn-1-yl)-N3-(oxetan-3-ylmeth-yl)-5,6-dihydrobenzo[f]imidazo[1,2-d][1,4]oxazepine-2,3-dicarboxamide] gave a Ki [1] of 0.0026 µM.
For `Cc1cc([C@](C)(O)C#Cc2ccc3c(c2)-c2nc(C(N)=O)c(C(=O)NCc4cccnc4)n2CCO3)no1` [Example 581, (R)-10-(3-hydroxy-3-(5-methylisoxazol-3-yl)but-1-yn-1-yl)-N3-(pyridin-3-ylmeth-yl)-5,6-dihydrobenzo[f]imidazo[1,2-d][1,4]oxazepine-2,3-dicarboxamide], the Ki [1] was 0.001 µM.
With `Cc1cc([C@](C)(O)C#Cc2ccc3c(c2)-c2nc(C(N)=O)cn2CC(CN2CCOCC2)O3)no1` (stereo partly drawn) [Example 597, 10-((R)-3-hydroxy-3-(5-methylisoxazol-3-yl)but-1-yn-1-yl)-6-(morpholinometh-yl)-5,6-dihydrobenzo[f]imidazo[1,2-d][1,4]oxazepine-2-carboxamide] the Ki [1] was 0.28 µM.
`CN1CC[C@@](O)(C#Cc2ccc3c(c2)-c2nc(C(N)=O)sc2C2CC3C2)C1=O` [Example 609, (R)-9-((3-hydroxy-1-methyl-2-oxopyrro-lidin-3-yl)ethynyl)-5,6-dihydro-4H-4,6-methanobenzo[6,7]cyclohepta[1,2-d]thiazole-2-carboxamide] was tested, and the Ki [1] was 0.00094 µM.
`CN1CC[C@@](O)(C#Cc2cc3c(cc2F)OCC(F)(F)c2sc(C(N)=O)nc2-3)C1=O` [Example 641, 4,4,8-trifluoro-9-[2-[(3R)-3-hydroxy-1-methyl-2-oxo-pyrrolidin-3-yl]ethynyl]-5H-[1]benzoxepino[5,4-d]thiazole-2-carboxamide] showed a Ki [1] of 0.0002 µM.
Compound `CN1CC[C@@](O)(C#Cc2ccc3c(c2)-c2nc(C(N)=O)c(C(F)F)n2C2CC3C2)C1=O` [Example 664, 3-(difluoromethyl)-10-[2-[(3R)-3-hy-droxy-1-methyl-2-oxo-pyrrolidin-3-yl]ethy-nyl]-5,6,7,12-tetrahydro-5,7-methano-benzo[c]imidazo[1,2-a]azepine-2-carboxamide] has a Ki [1] of 0.00078 µM.
Work on `Cc1nc([C@](C)(O)C#Cc2ccc3c(c2)-n2nc(C(N)=O)cc2CCO3)no1` [Example 673, (R)-9-(3-hydroxy-3-(5-methyl-1,2,4-oxadiazol-3-yl)but-1-yn-1-yl)-4,5-dihydro-benzo[b]pyrazolo[1,5-d][1,4]oxazepine-2-carboxamide] yielded a Ki [1] of 0.045 µM.
`Cc1cc([C@](C)(O)C#Cc2ccc3c(c2)-n2nc(C(N)=O)cc2C(F)(F)CO3)no1` [Example 674, (R)-4,4-difluoro-9-(3-hydroxy-3-(5-methylisoxazol-3-yl)but-1-yn-1-yl)-4,5-dihydrobenzo[b]pyrazolo[1,5-d][1,4]oxazepine-2-carboxamide] was tested, and the Ki was 0.0011 µM.
In the case of `NC(=O)c1cc2n(n1)-c1cc(C#CC3(O)CCCC3O)ccc1OCC2` (centres unmarked) [Example 695], the Ki [1] was 1.8 µM and 1.1 µM.
`CC(O)(C#Cc1ccc2c(c1)-n1nc(C(N)=O)cc1CCO2)C1CCCO1` (centres unmarked) [Example 696] was tested, and the Ki [1] was 1 µM.
In the case of `CC(C)(O)C#Cc1ccc2c(c1)-c1nc(C(N)=O)c(CN3CCC(=O)C3)n1CCO2` [Example 711], the Ki [1] was 1.8 µM and 1.1 µM.
For `Cc1cc([C@](C)(O)C#Cc2ccc3c(c2)-c2nc(C(N)=O)c(C(=O)NC4CCOCC4)n2CCO3)no1` [Example 712, (R)-10-(3-hydroxy-3-(5-methylisoxazol-3-yl)but-1-yn-1-yl)-N3-(tetrahydro-2H-pyran-4-yl)-5,6-dihydrobenzo[f]imidazo[1,2-d][1,4]oxazepine-2,3-dicarboxamide], the Ki [1] was 1 µM.
In the case of `Cc1cc([C@](C)(O)C#Cc2ccc3c(c2)-c2nc(C(N)=O)c(C(=O)NCc4cccc(F)c4)n2CCO3)no1` [Example 713, (R)-N3-(3-fluorobenzyl)-10-(3-hydroxy-3-(5-methylisoxazol-3-yl)but-1-yn-1-yl)-5,6-dihydrobenzo[f]imidazo[1,2-d][1,4]oxazepine-2,3-dicarboxamide], the Ki [1] was > 1.2 µM.
